The values below come from ChEMBL document CHEMBL3217742, “Mapping of a lipoglycopeptide antibiotic binding site on Staphylococcus aureus penicillin-binding protein 2 using a vancomycin photoaffinity analogue” (2012).

Experiment [1] deals with Enterococcus faecium. Description: Antibacterial activity against vancomycin A-resistant Enterococcus faecium SR7940. It is filed as functional.
Experiment [2] deals with Enterococcus faecium. Nature of the experiment: Antibacterial activity against vancomycin B-resistant Enterococcus faecium SR23598. It counts as functional.
Experiment [3] deals with Staphylococcus aureus. Description: Antibacterial activity against vancomycin A-resistant Staphylococcus aureus VRS2. It is filed as functional.
For experiment [4], the system named is Enterococcus faecium. Nature of the experiment: Antibacterial activity against vancomycin-susceptible Enterococcus faecium SR16972. It counts as functional.
Experiment [5] relates to Staphylococcus aureus. Nature of the experiment: Antibacterial activity against vancomycin-susceptible Staphylococcus aureus RN4220. It counts as functional.
The test system of experiment [6] is Staphylococcus aureus subsp. aureus RN4220. Nature of the experiment: Displacement of photoaffinity probe 1 from penicillin-binding protein-2 in Staphylococcus aureus RN4220 cell membrane incubated for 5 mins prior to photoaffinity probe 1 challenge for 5 mins measured after UV irradiation by SDS-PAGE based western blot analysis. (Immunoblotting shows a protein as a band on a membrane.)

Experiment [7] has the same test system. Nature of the experiment: Binding affinity to penicillin-binding protein-2 transpeptidase domain in Staphylococcus aureus RN4220 cell membrane at 1 uM incubated for 1 hr measured after UV irradiation by pull-down assay.
The test system is the same in experiment [8]. Description: Binding affinity to Staphylococcus aureus RN4220 recombinant C-terminal His6-tagged PBP2 expressed in Escherichia coli cells at 2 uM incubated for 2 hrs measured after UV irradiation by LC-MALDI-MS/MS analysis.
Experiment [9] has the same test system. Nature of the experiment: Binding affinity to penicillin-binding protein-2 in Staphylococcus aureus RN4220 cell membrane at 50 uM incubated for 20 mins measured after UV irradiation by SDS-PAGE based immunostaining.

Values after ≈ are worked out from the molar mass of the structure shown. Active and inactive are the calls of the source. The rule behind the calls is not given here.

For orientation: MIC means the lowest concentration found to suppress growth. The low end stands for inhibition by little substance, the high end for a need for much substance. As to `CN[C@H](CC(C)C)C(=O)N[C@H]1C(=O)N[C@@H](CC(N)=O)C(=O)N[C@H]2C(=O)N[C@H]3C(=O)N[C@H](C(=O)N[C@H](C(=O)O)c4cc(O)cc(O)c4-c4cc3ccc4O)[C@H](O)c3ccc(c(Cl)c3)Oc3cc2cc(c3O[C@@H]2O[C@H](CO)[C@@H](O)[C@H](O)[C@H]2O[C@H]2C[C@](C)(N)[C@H](O)[C@H](C)O2)Oc2ccc(cc2Cl)[C@H]1O` [VANCOMYCIN], the MIC in [1], in [2] and in experiment [3] was > 64 µg/mL in each case.

With `CN[C@H](CC(C)C)C(=O)N[C@H]1C(=O)N[C@@H](CC(N)=O)C(=O)N[C@H]2C(=O)N[C@H]3C(=O)N[C@H](C(=O)N[C@H](C(=O)O)c4cc(O)cc(O)c4-c4cc3ccc4O)[C@H](O)c3ccc(c(Cl)c3)Oc3cc2cc(c3O[C@@H]2O[C@H](CO)[C@@H](O)[C@H](O)[C@H]2O[C@H]2C[C@](C)(NCc3cccc(NC(=O)c4ccc(C)c(OCc5ccccc5)c4[N+](=O)[O-])c3)[C@H](O)[C@H](C)O2)Oc2ccc(cc2Cl)[C@H]1O`, the MIC came out at 1 µg/mL (≈ 0.548 µM) in [1]; 0.25 µg/mL (≈ 0.137 µM) in experiment [2]; 0.5 µg/mL (≈ 0.274 µM) in experiment [3]; 0.25 µg/mL (≈ 0.137 µM) in [4]; 0.125 µg/mL (≈ 0.0685 µM) in experiment [5]. Also, the inhibition result in experiment [6] was “Dose-dependent effect”.

Regarding `CN[C@H](CC(C)C)C(=O)N[C@H]1C(=O)N[C@@H](CC(N)=O)C(=O)N[C@H]2C(=O)N[C@H]3C(=O)N[C@H](C(=O)N[C@H](C(=O)NCCCOCCOCCOCCCNC(=O)CCCC[C@@H]4SC[C@@H]5NC(=O)N[C@@H]54)c4cc(O)cc(O)c4-c4cc3ccc4O)[C@H](O)c3ccc(c(Cl)c3)Oc3cc2cc(c3O[C@@H]2O[C@H](CO)[C@@H](O)[C@H](O)[C@H]2O[C@H]2C[C@](C)(NCc3ccc(NC(=O)c4ccc(C5(C(F)(F)F)N=N5)cc4)nc3)[C@H](O)[C@H](C)O2)Oc2ccc(cc2Cl)[C@H]1O`, the result in [7], in experiment [8] and in experiment [9] was Active. Further, the MIC came out at 2 µg/mL (≈ 0.911 µM) in experiment [1]; 0.5 µg/mL (≈ 0.228 µM) in [2]; 2 µg/mL (≈ 0.911 µM) in [3]; 0.5 µg/mL (≈ 0.228 µM) in [4]; 1 µg/mL (≈ 0.455 µM) in experiment [5].
